Measured values from PubChem BioAssay (NCI).
Where “and” joins values, the source holds several entries; their conditions need not be identical. Identical values can stand only once.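 Tested at 5 concentrations; 48 h exposure; 96-well plates; endpoints linearly interpolated, else capped at highest concentration. Here, GI50 denotes the concentration required for 50% inhibition of growth. TGI is the concentration that stops growth completely.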

Experiments:
Test in all cases: DTP human tumour cell line panel, 48 h
HCT-116 colon = tested on: HCT-116 colon
EKVX NSCLC = tested on: EKVX NSCLC
NCI/ADR-RES ovarian = tested on: NCI/ADR-RES ovarian
OVCAR-8 ovarian = tested on: OVCAR-8 ovarian
SF-539 CNS = tested on: SF-539 CNS
NCI-H460 lung = tested on: NCI-H460 lung
MOLT-4 leukemia = tested on: MOLT-4 leukemia
BT-549 breast = tested on: BT-549 breast
HOP-62 NSCLC = tested on: HOP-62 NSCLC
ACHN renal = tested on: ACHN renal

| Compound | GI50 (HCT-116 colon) [µM] | TGI (HCT-116 colon) | GI50 (EKVX NSCLC) [µM] | TGI (EKVX NSCLC) | GI50 (NCI/ADR-RES ovarian) | TGI (NCI/ADR-RES ovarian) [µM] | GI50 (OVCAR-8 ovarian) [µM] | TGI (OVCAR-8 ovarian) | GI50 (SF-539 CNS) [µM] | TGI (SF-539 CNS) | GI50 (NCI-H460 lung) [µM] | TGI (NCI-H460 lung) [µM] | GI50 (MOLT-4 leukemia) [µM] | TGI (MOLT-4 leukemia) | GI50 (BT-549 breast) [µM] | TGI (BT-549 breast) | GI50 (HOP-62 NSCLC) [µM] | TGI (HOP-62 NSCLC) | GI50 (ACHN renal) [µM] | TGI (ACHN renal) |
| --- | --- | --- | --- | --- | --- | --- | --- | --- | --- | --- | --- | --- | --- | --- | --- | --- | --- | --- | --- | --- |
| O=S(=O)(Nc1ccc(Br)cc1)c1ccc(-c2cnc(C3CC3)o2)cc1 | 2.2 | 16 µM | 3.39 | 17.5 µM | 1 µM | 10.4 | 4.16 | 20.4 µM | 1.86 | 5.91 µM | 2.2 | 10.2 | 2.16 | 24.2 µM | 3.37 | 19.4 µM | 2.37 | 16.6 µM | 4.9 | 17.5 µM |
| COC(=O)C1=C(O)C(C(=O)OC)C2CC(=O)CC1C2(C)C (stereo not drawn) | – | > 100 µM | – | > 100 µM | – | > 100 | – | > 100 µM | – | > 100 µM | – | > 100 | – | > 100 µM | – | > 100 µM | – | > 100 µM | – | > 100 µM |
| CC1=C([Se]CC(OC(=O)CC[Se]c2ccccc2)C(=O)NC(C)(C)C)C(=O)c2ccccc2C1=O (stereo not drawn) | 1.47 | 2.86 µM | 1.73 | 3.8 µM | 1.63 µM | 3.18 | 1.77 | 3.27 µM | 1.75 | 3.15 µM | 0.426 | 2.02 | 0.545 | 3.44 µM | 1.64 | 3.15 µM | 0.357 | 1.7 µM | 1.86 | 3.69 µM |
| c1ccc(C2ONC3=NCCN32)cc1 (stereo not drawn) | 30.3 | > 100 µM | > 100 | > 100 µM | 25.8 µM | 88.6 | 44.6 | > 100 µM | 46.6 | > 100 µM | 44.9 | > 100 | 12.2 | 34.6 µM | 79.6 | > 100 µM | 49.4 | > 100 µM | 41.9 | > 100 µM |
| C=C1CCC2C3(C)COC(C)(C)OC3CCC2(C)C1C/C=C1/C(=O)OCC1OC(C)=O (stereo not drawn) | 1.1 | 2.31 µM | 9.5 | 24.4 µM | 3.06 µM | 11.1 | 2.18 | 6.8 µM | 1.72 | 3.3 µM | 5.24 | 17.7 | 3.53 | 14.3 µM | 2.33 | 6.79 µM | 11.9 | 25 µM | 3.12 | 10.5 µM |
| Cc1c2cnccc2c(C)c2c1c1cc(C#N)ccc1n2C | 0.0434 | 0.593 µM | 0.219 | 0.624 µM | 0.117 µM | 0.736 | 0.103 | 1.96 µM | 0.254 | 1.14 µM | 0.124 | 0.427 | 0.0959 | 1.68 µM | 0.406 | 1.97 µM | 0.115 | 1.42 µM | 0.0457 | 0.456 µM |
| CCCN1C(=O)NC(=O)C(CC)(N2C(=O)c3c(F)c(F)c(F)c(F)c3C2=O)C1=O (stereo not drawn) | 1.48 | 4.93 µM | 2.33 | 6.62 µM | 2.91 µM | 10.5 | 2.54 | 7.81 µM | 1.92 | 4.14 µM | 2.24 | 5.71 | 2.71 | 8.65 µM | 2.19 | 5.29 µM | 2.04 | 4.4 µM | 1.9 | 3.69 µM |
| CC1CC(C)CC(C)C(O)/C(C#N)=C/C=C/CC(C2CCCC2C(=O)O)OC(=O)CC(O)C(C)C1 (stereo not drawn) | 0.0473 | 0.7 µM and 0.145 µM | 0.0518 | 0.384 µM and 0.465 µM | 0.187 µM and < 0.0196 µM | 0.265 | 0.0495 | 0.472 µM and 0.344 µM | 0.0051 | 0.0213 µM and 0.0146 µM | 0.0518 | 0.371 | 0.0269 | 0.0641 µM and 0.209 µM | 0.0501 | 0.636 µM and 0.321 µM | 0.0183 | 0.108 µM and 0.0648 µM | 0.0326 | 0.148 µM and 0.181 µM |
| c1ccc(NN(Cc2cnccn2)c2ccccc2)cc1 | – | > 100 µM | – | > 100 µM | – | > 100 | – | > 100 µM | – | > 100 µM | – | > 100 | – | > 100 µM | – | > 100 µM | – | > 100 µM | – | > 100 µM |
| O=C(NCC1CC1)c1ccc(-c2cccc(C(=O)NC3CC3)c2)cc1 | > 25 | > 25 µM | > 25 | > 25 µM | > 25 µM | > 25 | > 25 | > 25 µM | > 25 | > 25 µM | > 25 | > 25 | > 25 | > 25 µM | > 25 | > 25 µM | > 25 | > 25 µM | > 25 | > 25 µM |
| CC(=O)Nc1ccc(-c2cc(C(=O)O)c3cc4ccccc4cc3n2)cc1 | – | > 100 µM | – | > 100 µM | – | > 100 | – | > 100 µM | – | > 100 µM | – | > 100 | – | > 100 µM | – | > 100 µM | – | > 100 µM | – | > 100 µM |
| Clc1ccc(-c2cn3ccnc3c(-c3ccc(Cl)cc3)n2)cc1 | 12.2 | > 100 µM | 31.9 | > 100 µM | 11.2 µM | 47.5 | 16 | > 100 µM | 26.2 | > 100 µM | 19.9 | > 100 | 0.462 | > 100 µM | 46 | > 100 µM | 31.4 | > 100 µM | 13 | 52.3 µM |
| CCOC(=O)Oc1c(OC)cc(C(=O)c2ccc(OC)c(O)c2OC)cc1OC | 0.44 | 12.8 µM | 2.54 | > 100 µM | 0.378 µM | 6.97 | 3.36 | > 100 µM | 0.637 | 5.83 µM | 1.78 | > 100 | 0.492 | > 100 µM | 0.465 | 6.97 µM | 0.962 | > 100 µM | 1.95 | > 100 µM |
| CCc1c2c(nc3ccc(OCc4ccc(B(O)O)cc4)cc13)-c1cc3c(c(=O)n1C2)COC(=O)[C@]3(O)CC | 0.0118 | 17.8 µM | 0.614 | > 64 µM | 0.0766 µM | – | 0.0195 | > 32.1 µM | < 0.0117 | 0.155 µM | < 0.0134 | 1.39 | 0.0101 | > 100 µM | 0.0432 | > 26.5 µM | < 0.01 | – | < 0.0179 | 0.589 µM |
| O=C1C=CC(=O)c2c1ccc1c3ccccc3n(Cc3ccc([N+](=O)[O-])cc3)c21 | – | > 100 µM | – | > 100 µM | – | > 100 | – | > 100 µM | – | > 100 µM | – | > 100 | – | 54.2 µM | – | > 100 µM | – | > 100 µM | – | > 100 µM |
